Laboratory results taken from patent US12104188B2, “Modified caspase-9 polypeptides and methods of use thereof” (Allogene Therapeutics, Inc., priority 2017, dated 2024).

Assays:
[1] = humans; Iuliucci J D, et al., 2001; cited from earlier work
[2] = target: FKBP12 polypeptide with the F36V mutation (Homo sapiens, UniProt P62942, F37V); details: cited from earlier work
primary T cells = assay: Induction of apoptosis in T cells containing chimeric caspase 9 proteins: % live GFP positive cells by flow cytometry, with or without AP1903; type: cell-based, human; details: for % GFP, AP1903 / % GFP, 0 mM AP1903: % GFP positive cells, 4 days after AP1903
Method: Primary T cells were prepared from each of four different human blood donors (“Donor 1”, “Donor 2”, “Donor 3” and “Donor 8”) as follows.
Previously-frozen primary T cells were thawed and activated with ImmunoCult Human CD3/CD28 T cell activator (StemCell, Cat #10971). 48 hours later, a lentiviral vector which contains a polynucleotide encoding a chimeric caspase 9 protein as described above was added to the activated primary T cells for transduction. Different lentiviral vectors were added to different samples of the primary T cells to test the activity of the different chimeric caspase 9 proteins. The respective lentiviral vectors were provided to the T cells in filtered supernatant from the HEK293T cells. T cells transduced with a polynucleotide encoding a chimeric caspase 9 protein subsequently expressed the respective chimeric caspase 9 protein.
T cells containing different chimeric caspase 9 proteins prepared as described in part A above were assayed for apoptosis in response to the dimeric ligand AP1903.
[…] On the 3rd or 4th day, the cells were measured by flow cytometry to determine the percentage of live cells that are GFP positive (+). (GFP is a marker for the chimeric caspase 9 protein.) Thus, it can be extrapolated that the greater the % of live GFP+ cells, the lower the apoptotic activity of the respective chimeric caspase 9 protein in this assay.

[3] = tested on: primary T cells from Donor #8; assay: Example 2: induction of apoptosis in Donor #8 T cells comprising chimeric caspase-9 proteins with or without a CAR, in response to AP1903; type: cell-based, human; details: Day 1 post-AP1903, Donor #8 primary T cells, FIG. 6
Method: T cells derived from donor #8 comprising various different chimeric caspase 9 proteins, some of which further comprise a CAR were prepared as described in part 1A above and were assayed for expression of chimeric caspase-9 and for induced apoptosis in response to the dimeric ligand AP1903.
For each assay, about 1,000,000 cells containing a particular chimeric caspase 9 protein were incubated with or without 10 nM AP1903 for 3 or 4 days. On days 1, 2 and 3 post-AP1903 (FIGS. 6, 7, and 8, respectively), the cells were measured by flow cytometry to determine the percentage of live cells that are GFP positive (+) (GFP is a marker for the chimeric caspase 9 protein). Thus, it can be extrapolated that the greater the % of live GFP+ cells, the lower the apoptotic activity of the respective chimeric caspase 9 protein in this assay.
In FIGS. 6-9, for each different chimeric caspase-9 protein, expressed with or without a CAR, there are two adjacent bars. The left-side bar is for the cells incubated without AP1903, and the right-side bar is for the corresponding cells incubated with AP1903. […] This observation is consistent with the application of the D330M-D379E construct as a fast-acting “safety switch” for CAR-T therapies.

[4] = Table 3, Donor # 1, primary T cells
[5] = Table 4, Donor # 2, primary T cells
[6] = Table 5, Donor # 1, primary T cells
[7] = Table 6, Donor # 1, primary T cells
[8] = Table 7, Donor # 3, primary T cells

FKBP12 polypeptide with the F36V mutation, sequence (P62942 whole entry F37V): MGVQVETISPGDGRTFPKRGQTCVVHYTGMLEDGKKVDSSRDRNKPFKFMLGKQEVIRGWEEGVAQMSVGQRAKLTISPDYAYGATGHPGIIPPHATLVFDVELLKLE

Compound | well-tolerated dose [1] | affinity for FKBP12 with the F36V mutation compared with wild-type FKBP12 [2] | affinity of FKBP12 containing the F36V mutation for AP1903 [2] | % GFP, AP1903 (primary T cells; [4]) [%] | % GFP, 0 mM AP1903 (primary T cells; [4]) [%] | % GFP, AP1903 (primary T cells; [5]) [%] | % GFP, 0 mM AP1903 (primary T cells; [5]) [%] | % GFP, AP1903 (primary T cells; [6]) [%] | % GFP, 0 mM AP1903 (primary T cells; [6]) [%] | % GFP, AP1903 (primary T cells; [7]) [%] | % GFP, 0 mM AP1903 (primary T cells; [7]) [%] | % GFP, AP1903 (primary T cells; [8]) [%] | % GFP, 0 mM AP1903 (primary T cells; [8]) [%] | activity profile (high % GFP+ without AP1903, large difference with AP1903) (primary T cells; assessment of Tables 3-7) | speed of induced apoptosis relative to the N405Q construct [3]
CC[C@H](C(=O)N1CCCC[C@H]1C(=O)O[C@H](CCc1ccc(OC)c(OC)c1)c1cccc(OCC(=O)NCCNC(=O)COc2cccc([C@@H](CCc3ccc(OC)c(OC)c3)OC(=O)[C@@H]3CCCCN3C(=O)[C@@H](CC)c3cc(OC)c(OC)c(OC)c3)c2)c1)c1cc(OC)c(OC)c(OC)c1 (relative stereo) [AP1903, 2-Piperidinecarboxylic acid, 1-[(2S)-1-oxo-2-(3,4,5-trimethoxyphenyl)butyl]-, 1,2 ethanediylbis[imino(2-oxo-2,1-ethanediyl)oxy-3,1-phenylene[(1R)-3-(3,-4-dimethoxyphenyl)propylidene]]ester, [2S [1(R*),2R*[S*[S*[1(R*),2R*]]]]]-(9Cl)] | at least 1 mg/kg | much greater affinity | high affinity | – | – | – | – | – | – | – | – | – | – | – | –
D330M-D379E: chimeric caspase 9 protein (SEQ ID NO: 6): FKBP12 F36V dimerization domain, linker, caspase-9 polypeptide without CARD, D330M-D379E double mutation | – | – | – | 7 | 72 | 2 | 35 | 6.95 | 72.3 | 5.04 | 53.4 | 7 | 71 | attractive activity profiles | approximately 3 fold
